# Results from patent US9266829B2, “Quinone compounds and their uses for the treatment of cancer” (Onco-NX Limited, priority 2012, dated 2016).
# “Also recorded” adds a separate entry of the source.
# Columns and labels:
# esterase = assay: Degradation by porcine liver esterase; format: in vitro ADME; conditions: pig, porcine liver esterase
# Description: (§1) The cleavage of Es5 by esterase and cell extracts and its activation were investigated.
# porcine liver esterase = assay: Degradation by porcine liver esterase; format: in vitro ADME; conditions: in words
# Description: as §1
# physchem = format: physicochemical
# Procedure: The stability of esters and their hydrolysis products was measured in solution. (50 μM Es5 in Tris buffer (0.1 mol dm^−3) at pH 7.4). Samples were taken at timed intervals up to 24 hours and analysed by HPLC. The detection wavelength was 330 nm. Chromatographic analysis was carried out by isocratic elution with 30:70 MeOH: Tris buffer (0.1 mol dm^−3, pH 7.4), at 1 ml min^−1. The chromatographic separation of the drug was achieved using a Hypersil ODS column with 250 mm×4.6 mm I.D.
# esterases = assay: Cell lysate esterase reaction, MDA468 cell extract; format: in vitro ADME, human; conditions: human, MDA468 cell extract (cell lysate)
# Description: as §1
# (§2) The degradation of Es5 by esterases from cell lysate of the two cell lines MDA NQ01 and MDA468 was investigated.
# MDA468 cell extract = assay: Cell lysate esterase reaction, MDA468 cell extract; format: in vitro ADME, human
# Description: as §1, §2
smiles,measurement,setting,value
"CC(=O)OCCCC1=C(N2CC2)C(=O)C(C)=C(N2CC2)C1=O [Es5, Acetic Acid 3-(2,5-bis-aziridin-1-yl-4-methyl-3,6-dioxo-cyclohexa-1,4-dienyl)-propyl ester]",half-life,esterase,1 min
same,cleavage by porcine esterase to hydrolysis product,porcine liver esterase,rapidly cleaved
same,more stable than other esters based on RH1,physchem,> 20 times
same,half-life at 50 μM,"physchem; buffer, pH 7.4",> 24 h
same,half-life,esterases,4.67 h
same,"Degradation by MDA468 cell extract, rate","MDA468 cell extract; human, MDA468 cell extract (cell lysate)",(19.6 nmoles/hr/10^6 nmoles/hr/10^6 cells
same,cleavage of the ester by MDA 468 cell extract,"MDA468 cell extract; in words, compared with MDA468 NQ01 extract",much reduced rate; also recorded: appreciably lower rate
